Reference: US12551471B2, “ABT-751 and ionizing radiation” (Stichting Het Nederlands Kanker Instituut-Antoni van …, priority 2020, dated 2026)
“Also recorded” adds a separate entry of the source.

Columns and labels:
[1] = tested on: cancer cell lines of various origins (brain, colorectal, prostate, head & neck and cervical cancer); experiment: Flow cytometric cell cycle analysis (propidium iodide and phospho-histone H3 staining); format: cell-based
Experimental: We first studied whether ABT-751 increases the mitotic population of cancer cell lines (FIG. 1). Several lines of various origins—brain, colorectal, prostate, head & neck and cervical cancer—were exposed to a dose range of ABT-751 and incubated for 6 hours, after which the cell cycle was analyzed by flow cytometry. […] This analysis confirmed that ABT-751 dose-dependently increases the mitotic population of cancer cell lines at the expense of the relatively radio-resistant G1 population. […] This shift in cell cycle distribution will hereafter be referred to as induction of mitotic enrichment. […] Importantly, the G2 phase of the cell cycle is unaffected. […] In the first set-up, we irradiated cells prior to exposure to ABT-751 (FIG. 5A). In the second approach, we irradiated cells prematurely after only 1 hour of exposure to ABT-751 while maintaining the total exposure time of ABT-751 at 6 hours (FIG. 5B).

[2] = Animal weights throughout efficacy studies; format: in vivo; conditions: mice bearing orthotopic GSC457, U87 or GBM8 tumors
From the text: Finally, to investigate whether the mitotic enrichment strategy using ABT-751 induced toxicity in healthy tissues we studied several parameters.

[3] = Plasma and brain concentration after oral administration (LC-MS/MS); format: in vivo; conditions: mice, oral 50 mg/kg
Experimental: In order to facilitate the in vivo translation of the radiosensitization approach, we first established the dose level that achieved clinically relevant plasma concentrations in mice. Using a validate LC-MS/MS method, we measured the plasma concentration—time curve in mice following oral administration of 50 mg/kg ABT-751 in formulation containing DMSO:Cremophor EL:H2O (1:1:8).

[4] = tested on: tumor cells from various origins; experiment: Clonogenic assays with ionizing radiation (radiosensitization); format: cell-based
Experimental: Using clonogenic assays, we confirmed that induction of mitotic enrichment by ABT-751 radiosensitizes tumor cells from various origins. To achieve induction of mitotic enrichment, we exposed cells to 1 μM of ABT-751 for 6 hours, at which time we exposed cells to a dose range of ionizing radiation (FIG. 4A). Directly after irradiation, we washed ABT-751 away and waited for 18 hours before the process was repeated. In total, the process of induction of mitotic enrichment and subsequent irradiation was repeated 4 times to resemble a clinical hyperfractionation schedule. After the last fraction, cells were left to grow out into viable colonies and clonogenic potential was quantified. […] In the first set-up, we irradiated cells prior to exposure to ABT-751 (FIG. 5A). In the second approach, we irradiated cells prematurely after only 1 hour of exposure to ABT-751 while maintaining the total exposure time of ABT-751 at 6 hours (FIG. 5B).

GBM8 tumors = experiment: Radiosensitization efficacy study, orthotopic GBM8 model; format: in vivo, mice
Experimental: (§1) Mice bearing these GBM8 tumors were stratified between 5 treatment arms: • 1. Control treatment, • 2. 100 mg/kg daily ABT-751 for 4 days/week for 6 consecutive weeks • 3. 4 1 Gy of ionizing radiotherapy (RT) for 4 days/week for 6 consecutive weeks • 4. ABT-751 given 6 hours prior to RT for 4 days/week for 6 consecutive weeks • 5. RT administered prior to ABT-751 for 4 days/week for 6 consecutive weeks
(§2) The growth of these tumors could be followed up using bioluminescence imaging.

[5] = tested on: U87 human brain cancer cell line; experiment: Radiosensitization efficacy study, orthotopic U87 model; format: in vivo, mice
From the text: This U87 model is more intrinsically radiosensitive and was therefore irradiated with fractions of 1 Gy instead of 4 Gy as used above.

[6] = tested on: GSC457 brain cancer cells; experiment: Mitotic enrichment (p-H3 immunohistochemistry) in orthotopic GSC457 brain tumors; format: in vivo, mice
Experimental: To study the pharmacokinetic-pharmacodynamic relationship of ABT-751 in vivo, we made use of a genetically engineered mouse model-derived brain cancer model that was previously established in our lab. We implanted these GSC457 brain cancer cells in the brains of recipient mice and followed up their growth using bioluminescence imaging. When full-blown tumors had established, we treated tumor-bearing mice with different doses of ABT-751 and collected their brains 6 hours or 24 hours after administration. […] We next aimed to confirm whether repeated induction of mitotic enrichment was feasible and efficient in vivo. Using the same murine brain cancer model as described above, we quantified the number of mitotic cells in tumors 6 hours after administration of one dose of 50 mg/kg of ABT-751 and compared the levels to those in tumors 6 hours after receiving a second administration of 50 mg/kg of ABT-751 either 24 or 48 hours after the first administration. We again confirmed that mitotic enrichment can efficiently be induced by ABT-751 in brain cancer in vivo (FIG. 8). […] In the clinic, the standard-of-care for glioblastoma—the most common and aggressive adult brain cancer—involves ionizing radiation and concomitant alkylating chemotherapy using temozolomide. Therefore, we next confirmed that induction of mitotic enrichment in vivo using ABT-751 is compatible with chemo-radiotherapy.

[7] = tested on: various cancer cell lines; experiment: Cell survival assay; format: cell-based; conditions: 1 μM ABT-751, up to 10 hours of exposure
From the text: Importantly, induction of mitotic enrichment could be achieved without inducing cytotoxicity.

GSC457 tumors = experiment: Radiosensitization efficacy study, orthotopic GSC457 tumors; format: in vivo, mice; conditions: 4 weeks
Experimental: as §1, with “The first model is described above and was also used to study the […] relationship in FIGS. 7-9. Mice” for “Mice”, “these GSC457” for “these GBM8”, “2. 50” for “2. 100”, “for 4” for “for 6”, “4” for “4 1”
as §2

[8] = tested on: GSC457 tumors and healthy surrounding brain tissue; experiment: Immunohistochemistry for DNA damage and apoptosis markers, on-treatment samples, orthotopic GSC457 tumors; format: in vivo, mice; conditions: ABT-751 prior to radiotherapy
[9] = cells irradiated prior to exposure to ABT-751
[10] = dose range of ABT-751, incubated for 6 hours
[11] = two brain cancer cell lines, 1 μM for up to 8 hours, washed away, followed until 48 hours
[12] = ABT-751 6 hours prior to RT, versus radiotherapy
[13] = ABT-751 alone, 100 mg/kg daily, 4 days/week, 6 weeks
[14] = healthy surrounding brain tissue

Compound: COc1ccc(S(=O)(=O)Nc2cccnc2Nc2ccc(O)cc2)cc1 [ABT-751, N-[2-(4-hydroxyanilino)-3-pyridinyl]-4-methoxybenzenesulfonamide]
- mitotic enrichment [1, 9]: could not induce mitotic enrichment when cells were irradiated prior to exposure
- G1 cells (DNA 2N, pHH3-) [1, 10]: at the expense of G1 cells
- S phase cells (DNA 2N-4N, pHH3-) [1, 10]: stay unaffected
- amount of G2 cells (DNA 4N, pHH3-) [1, 10]: appears to increase slightly
- percentage of mitotic cells (DNA 4N, pHH3+) [1, 10]: dose-dependently increases the percentage of mitotic cells
- G2 phase of the cell cycle [1, 11]: unaffected
- mitotic population over time and after wash-out (reversibility) [1, 11]: induces a time-dependent increase of the mitotic population that reverts back to pre-exposure levels after the drug is removed
- concentration at which maximum achievable mitotic enrichment was achieved ([1]; within 6 hours, all cell lines tested): 1 µM
- weight of mice [2]: no treatment-related weight loss
- concentration in the brain ([3]; 8 hours after administration, 50 mg/kg): still in the range of the concentration that is sufficient to induce mitotic enrichment in vitro; also recorded: supersede the concentration required to achieve mitotic enrichment in vitro for up to 8 hours
- plasma concentration ([3]; DMSO:Cremophor EL:H2O (1:1:8)): in the range of those achieved in patients at a clinically safe dose levels for up to 8 hours
- clonogenic potential (radiosensitization) ([4]; 1 μM ABT-751 for 6 hours before ionizing radiation, repeated 4 times): radiosensitizes cancer cells of various origins
- clonogenic potential (radiosensitization) ([4]; cells irradiated after only 1 hour of exposure, total exposure 6 hours): In neither of the sequences radiosensitizing effects of ABT-751 were observed
- clonogenic potential (radiosensitization) [4, 9]: In neither of the sequences radiosensitizing effects of ABT-751 were observed
- survival (GBM8 tumors; [12]): extended survival
- tumor growth (GBM8 tumors; [12]): further slowed down tumor growth
- efficacy (tumor growth, survival) (GBM8 tumors; ABT-751 administered after radiotherapy): Increased efficacy could not be observed
- survival (GBM8 tumors; [13]): did not affect
- tumor growth (GBM8 tumors; [13]): did not affect tumor growth
- survival benefit ([5]; ABT-751 6 hours prior to RT, fractions of 1 Gy): doubled the survival benefit that was achieved by RT alone
- survival benefit ([5]; ABT-751 administered after RT): did not achieve a survival benefit
- mitotic population ([6]; all doses, 24 hours after administration): reverted to baseline levels
- mitotic enrichment in brain tumors (p-H3 staining) ([6]; different doses, brains collected 6 hours after administration): dose-dependently induced mitotic enrichment in brain tumors in vivo
- mitotic enrichment ([6]; given concomitantly with chemo-radiotherapy involving temozolomide): can induce mitotic enrichment
- mitotic enrichment ([6]; given concomitantly with radiotherapy alone): can induce mitotic enrichment
- doses achieving the most clear increases in mitotic enrichment ([6]; p-H3 staining, GSC457 tumors): ≥ 50 mg/kg
- repeated induction of mitotic enrichment ([6]; second 50 mg/kg dose 24 or 48 hours after the first, 6 hours after administration): feasible without loss of efficiency when a waiting period of 24 hours or longer is observed between subsequent doses
- viability (cytotoxicity) [7]: No loss of viability was observed up to 10 hours of exposure
- effect of RT on tumor growth and mouse survival (GSC457 tumors; 50 mg/kg ABT-751 6 hours prior to 4 Gy RT, 4 days/week): could be enhanced by given ABT-751 6 hours prior to every fraction of radiotherapy
- radiosensitizing effect (GSC457 tumors; RT administered prior to ABT-751, 4 days/week): a similar radiosensitizing effect could not be observed
- DNA damage (yH2A.X) [8, 14]: did not increase DNA damage (yH2A.X)
- apoptosis (cleaved-Caspase 3) [8, 14]: did not increase
- apoptosis ([8]; in the tumor, compared to radiotherapy alone): did strongly increase apoptosis specifically in the tumor compared to radiotherapy alone
